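GI50: concentration for 50% inhibition of growth. TGI: total growth inhibition.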
Columns and labels:
Assay in all cases: NCI anticancer screen, dose series, 384-well format
OVCAR-5 ovarian = test system: OVCAR-5 ovarian
MALME-3M melanoma = test system: MALME-3M melanoma
HT29 colon = test system: HT29 colon
HOP-62 NSCLC = test system: HOP-62 NSCLC
ACHN renal = test system: ACHN renal
SK-OV-3 ovarian = test system: SK-OV-3 ovarian
NCI-H23 lung = test system: NCI-H23 lung
HL-60(TB) leukemia = test system: HL-60(TB) leukemia
MDA-MB-231 breast = test system: MDA-MB-231 breast
DU-145 prostate = test system: DU-145 prostate
SN12C renal = test system: SN12C renal
UACC-62 melanoma = test system: UACC-62 melanoma
HS 578T breast = test system: HS 578T breast
NCI/ADR-RES ovarian = test system: NCI/ADR-RES ovarian
BT-549 breast = test system: BT-549 breast
RPMI-8226 leukemia = test system: RPMI-8226 leukemia
SF-539 CNS = test system: SF-539 CNS
LOX IMVI melanoma = test system: LOX IMVI melanoma
KM12 colon = test system: KM12 colon
MCF7 breast = test system: MCF7 breast
OVCAR-8 ovarian = test system: OVCAR-8 ovarian
A549 NSCLC = test system: A549 NSCLC
CAKI-1 renal = test system: CAKI-1 renal
SK-MEL-5 melanoma = test system: SK-MEL-5 melanoma
HCC-2998 colon = test system: HCC-2998 colon
UACC-257 melanoma = test system: UACC-257 melanoma
EKVX NSCLC = test system: EKVX NSCLC
COLO 205 colon = test system: COLO 205 colon
SF-295 CNS = test system: SF-295 CNS
NCI-H522 lung = test system: NCI-H522 lung
786-0 renal = test system: 786-0 renal
NCI-H460 NSCLC = test system: NCI-H460 NSCLC
A498 renal = test system: A498 renal
HOP-92 NSCLC = test system: HOP-92 NSCLC
SF-268 CNS = test system: SF-268 CNS
SR leukemia = test system: SR leukemia
CCRF-CEM leukemia = test system: CCRF-CEM leukemia
K-562 leukemia = test system: K-562 leukemia
RXF 393 renal = test system: RXF 393 renal
OVCAR-4 ovarian = test system: OVCAR-4 ovarian
HCT-116 colon = test system: HCT-116 colon
SK-MEL-2 melanoma = test system: SK-MEL-2 melanoma
OVCAR-3 ovarian = test system: OVCAR-3 ovarian
SK-MEL-28 melanoma = test system: SK-MEL-28 melanoma
M14 melanoma = test system: M14 melanoma
HCT-15 colon = test system: HCT-15 colon
SNB-19 CNS = test system: SNB-19 CNS

## CC(=O)N1CC(F)(F)c2c(Sc3ncc(N4CCC5(CC4)COC[C@H]5N)nc3N)cccc21
OVCAR-5 ovarian
  GI50: 18.1 µM
  TGI: 57.3 µM
MALME-3M melanoma
  GI50: 8.55 µM
  TGI: 20.8 µM
HT29 colon
  GI50: 3.75 µM
  TGI: 12.7 µM
HOP-62 NSCLC
  GI50: 13.7 µM
  TGI: 30.9 µM
ACHN renal
  GI50: 6.61 µM
  TGI: 27.1 µM
SK-OV-3 ovarian
  GI50: 4.82 µM
  TGI: 19.1 µM
NCI-H23 lung
  GI50: 2.06 µM
  TGI: 15.2 µM
HL-60(TB) leukemia
  GI50: 10 µM
  TGI: 21.6 µM
MDA-MB-231 breast
  GI50: 15.3 µM
  TGI: 41.4 µM
DU-145 prostate
  GI50: 19.1 µM
  TGI: 63.1 µM
SN12C renal
  GI50: 11.2 µM
  TGI: 50.9 µM
UACC-62 melanoma
  GI50: 12.5 µM
  TGI: 25.6 µM
HS 578T breast
  GI50: 13.9 µM
  TGI: 29.8 µM
NCI/ADR-RES ovarian
  GI50: 16.3 µM
  TGI: 56.8 µM
BT-549 breast
  GI50: 4.68 µM
  TGI: 22.1 µM
RPMI-8226 leukemia
  GI50: 3.87 µM
  TGI: 15.5 µM
SF-539 CNS
  GI50: 8.31 µM
  TGI: 21.1 µM
LOX IMVI melanoma
  GI50: 12.4 µM
  TGI: 25 µM
KM12 colon
  GI50: 2.97 µM
  TGI: 13.5 µM
MCF7 breast
  GI50: 0.0453 µM
  TGI: 11.4 µM
OVCAR-8 ovarian
  GI50: 11.9 µM
  TGI: 30.8 µM
A549 NSCLC
  GI50: 14.1 µM
  TGI: 35.2 µM
CAKI-1 renal
  GI50: 2.74 µM
  TGI: 21.1 µM
SK-MEL-5 melanoma
  GI50: 15.7 µM
  TGI: 29.2 µM
HCC-2998 colon
  GI50: 17.3 µM
  TGI: 32.1 µM
UACC-257 melanoma
  GI50: 14.4 µM
  TGI: 27.6 µM
EKVX NSCLC
  GI50: 6.02 µM
  TGI: 43.1 µM
COLO 205 colon
  GI50: 16.6 µM
  TGI: 32 µM
SF-295 CNS
  GI50: 15.5 µM
  TGI: 31.2 µM
NCI-H522 lung
  GI50: 1.56 µM
  TGI: 14.5 µM
786-0 renal
  GI50: 10.7 µM
  TGI: 23.5 µM
NCI-H460 NSCLC
  GI50: 18.6 µM
  TGI: 34.6 µM
A498 renal
  GI50: 2.75 µM
  TGI: 20.8 µM
HOP-92 NSCLC
  GI50: 2.17 µM
  TGI: 14.2 µM
SF-268 CNS
  GI50: 14.4 µM
  TGI: 48.7 µM
SR leukemia
  GI50: 2.35 µM
  TGI: 6.03 µM
CCRF-CEM leukemia
  GI50: 15.3 µM
  TGI: 28.6 µM
K-562 leukemia
  GI50: 0.774 µM
  TGI: 13.9 µM
RXF 393 renal
  GI50: 2.22 µM
  TGI: 8.72 µM
OVCAR-4 ovarian
  GI50: 9.78 µM
  TGI: 35.9 µM
HCT-116 colon
  GI50: 16.2 µM
  TGI: 30 µM
SK-MEL-2 melanoma
  GI50: 16.2 µM
  TGI: 30.3 µM
OVCAR-3 ovarian
  GI50: 14.1 µM
  TGI: 30.7 µM
SK-MEL-28 melanoma
  GI50: 13.1 µM
  TGI: 26.2 µM
M14 melanoma
  GI50: 10.4 µM
  TGI: 22.4 µM
HCT-15 colon
  GI50: 16.9 µM
  TGI: 31.8 µM
SNB-19 CNS
  GI50: 13.6 µM
  TGI: 41.7 µM
